Entries after “also recorded” stand apart in the source; their conditions may differ. Like-named read-outs stand apart in the source and are kept apart here.
How the values were obtained:
HeLa cells = assay: HeLa cell viability, propidium iodide exclusion assay; assay type: cell-based, human
Procedure: HeLa cells, treated with DMSO, MAL3-101, MAL3-51, CJ-21,058 or equisetin, were subject to a propidium iodide viability assay and analyzed by flow cytometry.
HeLa cell line was maintained in RPMI-1640 supplemented with 10% bovine serum, 100 U/ml penicillin/streptomycin, and 2 mM L-glutamine at 37° C. in 5% CO2.
HeLa cell viability assays. Propidium iodide exclusion assay (reviewed in Steff et al., 2001, Cytometry; 45(4):237-43 and Wigg et al., 2003, Anal Biochem; 317(1):19-25) was used to determine HeLa cell viability after drug treatment. Cells were plated at 1×10^4 cells per well (96 well plate) with or without addition of test compounds for the stated time periods, as described for FIGS. 1-4. […] Adherent cells were rinsed with phosphate buffered saline (PBS), trypsinized (37° C. for 5 minutes), pelleted (2,000 g, 2 minutes), resuspended in PBS (500 μl) containing propidium iodide (1 μg/ml), DAPI [4′-6-Diamidino-2-phenylindole] (5 μg/ml) and analyzed by flow cytometry on a Dakocytomation CyAn without gating. Single fluorophore controls were acquired prior to the collection of the experimental data.

[1] = system: T. brucei microsomes (TbRM); assay: Import of full length VSG—117 into TbRM with T. brucei cytosol (Example 10); assay type: biochemical, Trypanosoma brucei
Procedure: FIGS. 18A and 18B. MAL3-101, equisetin, and CJ-21,058 inhibit VSG translocation into TbRM. FIG. 18A presents the protocol used for import of VSG—117. In FIG. 18B, VSG—117 mRNA was translated in rabbit reticulocyte lysate with 1.5 equivalents T. brucei cytosol pretreated with MAL3-101 (3 μM), MAL3-51 (10 μM), CJ-21,058 (20 μM) or equisetin (50 μM)) for 60 minutes. The reaction mixtures received cycloheximide (50 μg/ml, final concentration) and were incubated with TbRM (one equivalent). After incubation at 37° C. for 60 minutes, reaction mixtures were transferred to an ice-water bath and treated with proteinase K (30 μg/ml, final concentration) for 60 minutes. Proteins were resolved by SDS-PAGE and detected by phosphorimaging. Lane 1 is VSG—117 incubated with TbRM; lane 2 is VSG—117 digested with proteinase K after incubation with TbRM; lane 3 is VSG—117 incubated with MAL3-101 in the presence of TbRM; lane 4 is VSG—117 and TbRM incubated with MAL3-101 and then digested with proteinase K; lane 5 is VSG—117 incubated with MAL3-51 and TbRM; lane 6 is VSG—117 incubated with TbRM in the presence of equisetin; lane 7 is VSG—117 incubated with ThRM; lane 8 is VSG—117 incubated with equisetin and digested with proteinase K; lane 9 is VSG—117 incubated with CJ-21,058 and TbRM; lane 10 is VSG—117 incubated with TbRM and CJ-21,058 and digested with proteinase K. For quantitation, each proteasedigested sample was compared to a control experiment containing the drug but without protease addition. Thus, lane 2 is compared with lane 1 while lane 4 is compared to lane 3, and so on.
Protein Import Into TbRM. Two μg of RNA encoding VSG—117 (or VSG_MVAT7) was translated in 30 μl of a reaction mixture containing 15 μl rabbit reticulocyte lysate, 60 μM amino acid mixture (-Met, -Cys), and 2.4 μCi [^35S]Promix. […] The gels were dried, and radioactive polypeptides were detected with a phosphorimager (Personal Molecular Imager FX, (BioRad). Data were quantified with QuantityOne software (BioRad), and graphs were plotted with DeltaGraph (Red Rock software). […]

[2] = system: Bloodstream T. brucei CA427; assay: Bloodstream T. brucei cell culture drug susceptibility (Example 4); assay type: cell-based, Trypanosoma brucei; conditions: cultured bloodstream T. brucei
Procedure: Cell Culture. Bloodstream T. brucei cell culture and drug susceptibility studies were performed as previously described. Bloodstream T. brucei CA427 were cultured in HMI-9 media (Hirumi and Hirumi, 1994, Parasitol Today; 10(2):80-4) to a density of 10^6 cells/ml. Cells were seeded (500 μl of 4×10^4 cells/ml) to a 24-well plate and exposed to MAL3-101, CAM741, and NFI028 at listed concentrations (see figure legends) or an equal volume of DMSO. Cells were incubated at 37° C. and counted after 24 and 48 hours, using a hemocytometer.

`C/C=C/C1C(C)=CC2CC(C)CCC2C1(C)/C(O)=C1/C(=O)C(CO)N(C)C1=O` (centres unmarked) [CJ-21,058] was tested, and the “effect on human HeLa cells” value (HeLa cells) was “little effect” and the “inhibition of import of VSG—117 into TbRM compared to DMSO control” value ([1]; CJ-21,058 (20 μM in FIG. 18B legend)) was 70%.

`CCCCCCN(C(=O)CCCCCN1C(=O)NC(c2ccc(-c3ccccc3)cc2)C(C(=O)OCc2ccccc2)=C1C)C(C(=O)NCCCC)c1ccc(OCC(=O)OC)c(C(=O)OC)c1` (centres unmarked) [MAL3-101] was tested, and the “concentration killing all parasites” value [2] was 3 µM, the IC50 ([2]; read-out: IG50, T. brucei growth) was 1500 nM and the “VSG—117 protected from proteinase K” value ([1]; MAL3-101 present (3 μM in FIG. 18B legend), DMSO approximately 80%) was 13%.

With `C/C=C/[C@@H]1C=C[C@@H]2C[C@H](C)CC[C@H]2[C@]1(C)/C(O)=C1/C(=O)[C@H](CO)N(C)C1=O` [equisetin] the “effect on human HeLa cells” value (HeLa cells; concentrations that killed one hundred percent T. brucei (IC100)) was “little effect; also recorded: did not have discernible effects”, the HeLa cell viability (HeLa cells; equisetin 26 μM) was “neither CJ-21,058 (20 μM) nor equisetin (26 μM) decreased viability of HeLa cells” and the “inhibition of VSG—117 translocation into TbRM” value ([1]; equisetin (50 μM in FIG. 18B legend)) was 95%.
